Results: patent publication US20210238124A1, “ACETYLATED PRODRUGS FOR DELIVERY ACROSS THE BLOOD-BRAIN BARRIER” (THE GENERAL HOSPITAL CORPORATION, priority 2018, published 2021)
Each block holds one molecule with its values, some of them ahead of it.

Legend:
[1] = biological target: Aβ42 fibers (Homo sapiens, UniProt P05067); conditions: cited from earlier work
[2] = tested on: large intestinal cancer; conditions: rats fed prior to carcinogen treatment; cited from earlier work
[3] = rat, in vivo
Experimental: Here, imaging is performed in normal rats and rats pretreated with mannitol.
PET imaging was performed in a rats using a Siemens Focus 220 scanner with Neurological CT scanner. [^18F]-fluoromannitol (1.2 mCi) was injected via tail-vein and imaged in list mode for one hour.
In a separate experiment, a 25% solution of D-mannitol was i.v. injected 30 min prior to tracer injection.

[4] = Biodistribution / brain uptake of ^18F-scyllo-inositols 1 and 2; type: in vivo, rats
Experimental: Brain uptake (% DPG) at 5, 30, and 60 min for the acetylated derivative 1 was 0.8%, 0.9%, and 0.26% (See FIG. 4).
Inositol is transported across the blood-brain barrier by a low capacity, saturable system.

[5] = Biodistribution of 4-[^18F]-fluoroinositol in normal rats; type: in vivo; conditions: FIG. 1

Sequence of Aβ42 fibers (P05067 672-713 limits assumed): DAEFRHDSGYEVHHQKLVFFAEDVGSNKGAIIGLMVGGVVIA

Structure (SMILES): O[C@H]1[C@H](O)[C@@H](O)[C@H](O)[C@@H](O)[C@@H]1O [scyllo-inositol]
formation of Aβ42 fibers [1]: inhibiting Aβ42 fiber formation

Structure (SMILES): O=P([O-])(O)OC1C(OP(=O)(O)O)C(OP(=O)(O)O)C(OP(=O)(O)O)C(OP(=O)(O)O)C1OP(=O)(O)O.[Na+] (centres unmarked) [sodium inositol hexaphosphate]
decrease in large intestinal cancer compared to the control carcinogen group [2]: 35%

Structure (SMILES): OC[C@@H](O)[C@@H](O)[C@H](O)[C@H](O)C[18F] [[^18F]-Fluoromannitol, 1-deoxy-1-[^18F]-fluoro-D-mannitol]
Brain accumulation (% injected dose) [3]: 0.1 % ID
Brain activity (% injected dose) [3]: 0.08 % ID
brain uptake in the images [3]: high brain uptake
early brain kinetics [3]: very fast flow related brain accumulation and washout

brain clearance ([4]; rat, in vivo): significant brain clearance
Structure (SMILES): CC(=O)OC1C([18F])C(OC(C)=O)C(OC(C)=O)C(OC(C)=O)C1OC(C)=O (centres unmarked) [Compound 1, 1-deoxy-1-[^18F]-fluoro-2,3,4,5,6-penta-O-acetyl-scyllo-inositol]

Structure (SMILES): OC1C(O)C(O)C(F)C(O)C1O (centres unmarked) [4-[^18F]-fluoroinositol, 4-deoxy-4-fluoro-myo-inositol]
defluorination [5]: minimal
tissue accumulation (biodistribution) [5]: high and fast accumulation in kidney and bladder without any other specific tissue accumulation

Structure (SMILES): OC1C(O)C(O)C(F)C(O)C1O (centres unmarked) [1-deoxy-1-fluoro-scyllo-inositol]
formation of Aβ42 fibers [1]: significantly inhibit

Structure (SMILES): OC1C(O)C(O)C([18F])C(O)C1O (centres unmarked) [Compound 2, 1-deoxy-1-[^18F]-fluoro-scyllo-inositol]
Brain uptake (% DPG) ([4]; 5 min): 0.18 % DPG
Brain uptake (% DPG) ([4]; 30 min): 0.30 % DPG
Brain uptake (% DPG) ([4]; 60 min): 0.36 % DPG
site of majority of the activity ([4]; FIG. 5): majority of the activity accumulating in kidneys
